According to PMC7932537, “Quantitative profiling of protease specificity” (PLoS Computational Biology, 2021):

Tests used:
MMP-2 = test: Substrate phage display with NGS: relative probability (RP) of P3-P1' tetramer clusters; assay type: biochemical, human; conditions: for relative probability (RP) of matching tetramer: P3-P1' tetramer matching the MS detected MMP2 cleavage sequence, RP_above_4.5; for MMP2 relative probability (RP): MMP2 tetramers from unique substrates, unrounded values; for avg_RP: MMP2 - no binning
MMP-9 = test: as above; assay type: biochemical, human; conditions: for corresponding MMP9 relative probability (RP): MMP2 tetramers from unique substrates, RP of same tetramer for MMP9
[1] = RP of the P3-P1' tetramer cluster contained in the hexamer, 200 nM MMP-2, 2 h, 37°C, two rounds of selection
[2] = MMP9, RP of the P3-P1' tetramer contained in the hexamer substrate (substrate phage display, NGS)
[3] = MMP2, RP of matching P3-P1' tetramer, common set of MMP2-9 selectome, RP above KL threshold
[4] = MMP9, RP of matching P3-P1' tetramer, common set of MMP2-9 selectome
[5] = normalized RP of matching tetramer, unique part of MMP2 selectome
[6] = RP according to MMP2, P3-P1' tetramer of unique physiologic MMP2 substrates from MEROPS
[7] = RP of the P3-P1' tetramer, MMP2 substrate phage display/NGS, tetramers of physiologic MEROPS substrates common to MMP2 and MMP9
[8] = RP according to MMP9, P3-P1' tetramer of unique physiologic MMP9 substrates from MEROPS
[9] = RP of the P3-P1' tetramer, MMP9 substrate phage display/NGS, tetramers of physiologic MEROPS substrates common to MMP2 and MMP9
[10] = RP of matching tetramer, common MMP2-9 selectome
[11] = MMP9, RP of the P3-P1' tetramer matching the MS detected cleavage, RP above 4.7, substrate phage display with NGS
[12] = RP of matching tetramer, common MMP2-9 selectome, RP above KL threshold
[13] = average relative probability of the tetramer, redundant tetramers averaged out
[14] = tetramer projected onto MMP-9 cleavage sites determined by Prudova et al. (2010)
[15] = average relative probability (RP) of the P3-P1' tetramer, redundant tetramers have been averaged out

PRPQAA
relative probability (RP) (MMP-2; [1]): 27.2115
relative probability (RP) (MMP-9; [2]): 37.3898

PADF
relative probability (RP) (acc.to MMP2) (MMP-2; [3]): 20.44
relative probability (RP) of matching tetramer (MMP-2): 20.44
relative probability (RP) (acc.to MMP9) (MMP-9; [4]): 12.85

NAQL
relative probability (RP) of matching tetramer (MMP-2): 9.69
relative probability (RP) (acc.to MMP2) (MMP-2; RP of matching tetramer, unique part of MMP2 selectome, RP above KL threshold): 9.69
normalized RP - MMP2 (MMP-2; [5]): 0.2653
relative probability (RP) (acc.to MMP9) (MMP-9; RP of matching tetramer, unique part of MMP2 selectome): 0
normalized RP - MMP9 (MMP-9; [5]): 0

MGSL
MMP2 relative probability (RP) (MMP-2): 28.8961
Relative probability (RP) rank (MMP-2; [6]): 452
relative probability (RP) (MMP-2; [6]): 28.9
corresponding MMP9 relative probability (RP) (MMP-9): 3.398

VAEM
MMP2 relative probability (RP) (MMP-2): 19.6601
Relative probability (RP) rank (MMP-2; [6]): 1857
relative probability (RP) (MMP-2; [6]): 19.66
relative probability (RP) (acc.to MMP2) (MMP-2; [7]): 19.66
corresponding MMP9 relative probability (RP) (MMP-9): 2.985
Relative probability (RP) rank (MMP-9; [8]): 7772
relative probability (RP) (MMP-9; [8]): 2.99
relative probability (RP) (acc.to MMP9) (MMP-9; [9]): 2.99

GLSL
relative probability (RP) (acc.to MMP2) (MMP-2; [7]): 0.18
relative probability (RP) (acc.to MMP9) (MMP-9; [9]): 4.42

PRPY
relative probability (RP) (acc.to MMP2) (MMP-2; [3]): 33.44
relative probability (RP) of matching tetramer (MMP-2): 33.44
relative probability (RP) (acc.to MMP2) (MMP-2; [10]): 33.44
relative probability (RP) (acc.to MMP9) (MMP-9; [4]): 47.69
relative probability (RP) (MMP-9; [11]): 47.69
relative probability (RP) (acc.to MMP9) (MMP-9; [12]): 47.69

PRML [P3-P1' tetramer cluster]
avg_RP (MMP-2; [13]): 30.5973
relative probability (RP) (MMP-9; [14]): 42.29

TGLT
relative probability (RP) (acc.to MMP2) (MMP-2; [7]): 0.24
Relative probability (RP) rank (MMP-9; [8]): 41284
relative probability (RP) (MMP-9; [8]): 0.21
relative probability (RP) (acc.to MMP9) (MMP-9; [9]): 0.21

QQPSRL
relative probability (RP) (MMP-2; [1]): 31.7732
relative probability (RP) (MMP-9; [2]): 39.8157

PKKL
relative probability (RP) (acc.to MMP2) (MMP-2; [7]): 8.1
relative probability (RP) (acc.to MMP9) (MMP-9; [9]): 23.95

LAEL [P3-P1' tetramer cluster]
avg_RP (MMP-2; [13]): 27.078
relative probability (RP) (MMP-9; [14]): 0.44

PTGS
relative probability (RP) (acc.to MMP2) (MMP-2; [7]): 0.04
relative probability (RP) (acc.to MMP9) (MMP-9; [9]): 0.05

GRGL
avg_RP (MMP-2; [13]): 4.9808
relative probability (RP) (acc.to MMP2) (MMP-2; [3]): 4.98
relative probability (RP) of matching tetramer (MMP-2): 4.98
relative probability (RP) (acc.to MMP2) (MMP-2; [10]): 4.98
relative probability (RP) (acc.to MMP9) (MMP-9; [4]): 11.45
relative probability (RP) (MMP-9; [11]): 11.45
relative probability (RP) (acc.to MMP9) (MMP-9; [12]): 11.45

PQLL
avg_RP (MMP-2; [15]): 22.6078
relative probability (RP) (acc.to MMP2) (MMP-2; [10]): 22.61
relative probability (RP) (MMP-9; [11]): 32.66
relative probability (RP) (acc.to MMP9) (MMP-9; [12]): 32.66

PNSM
relative probability (RP) (acc.to MMP2) (MMP-2; [3]): 14.95
relative probability (RP) of matching tetramer (MMP-2): 14.95
relative probability (RP) (acc.to MMP2) (MMP-2; [10]): 14.95
relative probability (RP) (acc.to MMP9) (MMP-9; [4]): 27.58
relative probability (RP) (MMP-9; [11]): 27.58
relative probability (RP) (acc.to MMP9) (MMP-9; [12]): 27.58

EGPAGL
relative probability (RP) (MMP-2; [1]): 36.0156
relative probability (RP) (MMP-9; [2]): 47.2274

IGLM
MMP2 relative probability (RP) (MMP-2): 19.5116
Relative probability (RP) rank (MMP-2; [6]): 1895
relative probability (RP) (MMP-2; [6]): 19.51
relative probability (RP) (acc.to MMP2) (MMP-2; [7]): 19.51
corresponding MMP9 relative probability (RP) (MMP-9): 2.913
Relative probability (RP) rank (MMP-9; [8]): 7888
relative probability (RP) (MMP-9; [8]): 2.91
relative probability (RP) (acc.to MMP9) (MMP-9; [9]): 2.91

ITGL
MMP2 relative probability (RP) (MMP-2): 4.832
Relative probability (RP) rank (MMP-2; [6]): 7648
relative probability (RP) (MMP-2; [6]): 4.83
corresponding MMP9 relative probability (RP) (MMP-9): 0.3587

PEGL
relative probability (RP) (acc.to MMP2) (MMP-2; [7]): 29.5
relative probability (RP) (acc.to MMP9) (MMP-9; [9]): 39.41

IANL
avg_RP (MMP-2; [15]): 33.8805
relative probability (RP) (acc.to MMP2) (MMP-2; [3]): 33.88
relative probability (RP) of matching tetramer (MMP-2): 33.88
relative probability (RP) (acc.to MMP2) (MMP-2; [10]): 33.88
relative probability (RP) (acc.to MMP9) (MMP-9; [4]): 21.07
relative probability (RP) (MMP-9; [11]): 21.07
relative probability (RP) (acc.to MMP9) (MMP-9; [12]): 21.07

LGTY
MMP2 relative probability (RP) (MMP-2): 6.755
Relative probability (RP) rank (MMP-2; [6]): 6426
relative probability (RP) (MMP-2; [6]): 6.75
corresponding MMP9 relative probability (RP) (MMP-9): 0.2972

PHGYKG
relative probability (RP) (MMP-2; [1]): 24.9359
relative probability (RP) (MMP-9; [2]): 44.1642

PAAV
relative probability (RP) (acc.to MMP2) (MMP-2; [10]): 30.72
relative probability (RP) (MMP-9; [11]): 36.05
relative probability (RP) (acc.to MMP9) (MMP-9; [12]): 36.05

GPEGMK
relative probability (RP) (MMP-2; [1]): 19.9209
relative probability (RP) (MMP-9; [2]): 31.8598
